Results from US7196199B2, “Phenoxypropylamine compounds” (Mitsubishi Pharma Corporation, priority 1999, dated 2007).
pKi: −log10 of the molar value. Counter-ions that a name gives are not always drawn. Like-named read-outs stand apart in the source and are kept apart here.

How the values were obtained:
5-HT1A receptor [1] = molecular target: T1, 5-HT1A receptor (Rattus norvegicus, UniProt P19327); experiment: Electrophysical evaluation of agonist/antagonist of 5-HT1A receptor (nystatin perforated patch clamp, dorsal raphe nuclei cell); format: cell-based; design: The isolated nerve cell (dorsal raphe nuclei cell) was subjected to nystatin perforated patch clamp method; endogenous in cells; host or cells: acutely dissociated dorsal raphe nuclei neurons of 2-week-old male Wistar rat; settings: 10^−7 mol/L, isolated rat dorsal raphe nuclei cell; for antagonistic action (% of control) of the test substance on the 8-OH-DPAT induced inward K+ current: 8-OH-DPAT 10^−7 mol/L
T1 sequence (P19327 1-422): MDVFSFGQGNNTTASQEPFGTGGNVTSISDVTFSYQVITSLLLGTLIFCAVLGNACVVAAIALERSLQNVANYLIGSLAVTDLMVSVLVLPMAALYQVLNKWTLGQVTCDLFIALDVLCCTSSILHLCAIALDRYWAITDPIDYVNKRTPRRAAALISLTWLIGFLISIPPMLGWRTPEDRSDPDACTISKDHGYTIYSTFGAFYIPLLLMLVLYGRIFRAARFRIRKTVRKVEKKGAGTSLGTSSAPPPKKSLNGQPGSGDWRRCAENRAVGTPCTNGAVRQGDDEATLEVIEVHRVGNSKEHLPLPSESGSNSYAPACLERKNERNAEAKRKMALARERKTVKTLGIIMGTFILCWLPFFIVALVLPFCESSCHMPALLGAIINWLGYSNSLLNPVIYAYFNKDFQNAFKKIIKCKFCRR
Experimental: The experiment followed the method of Katayama et al (Brain Res.; 745, 283–292, 1997).
The brain of 2-week-old male Wistar rat was extracted, and a brain thin section (thickness 350 μm) containing dorsal raphe nuclei was prepared using a microslicer. The brain thin section was treated in Ringer's solution containing pronase (0.4 mg/mL) and protease type X (0.25 mg/mL) at 30° C. for 25 min and 15 min, respectively, and the dorsal raphe nuclei region was micropunched out. The brain thin section punched out was subjected to pipetting in a culture dish filled with the Ringer's solution to isolate the nerve cell. The isolated nerve cell (dorsal raphe nuclei cell) was subjected to nystatin perforated patch clamp method (Akaike & Harata, Jpn. J. Physiol.; 44, 433–437, 1994) and the inward K^+ current induced by the test substance and the like was measured under membrane voltage-clamp condition (VH=−60 mV). For the measurement of the inward K^+ current via the 5-HT1A receptor, an extracellular solution and a patch pipette solution having the following compositions were used simultaneously. • extracellular solution (mmol/L): NaCl, 135; KCl, 20; MgCl2, 1; CaCl2, 2; D-glucose, 10; HEPES, 10; tetrodotoxin, 3×10^−4; LaCl3, 10 • patch pipette solution (mmol/L): KCl, 150; HEPES, 10
To the above-mentioned patch pipette solution was added nystatin. (Sigma, Lot No. 33H0762) to the final concentration of 75 μg/mL before the electric measurement.
The current response was measured with a voltage clamp amplifier (List Medical, L/M-EPC7), and the obtained results were recorded on a chart of a recticorder (Nihondenki Sanei, RECTIHORIZ-8K), digitized by a PCM recording device (NF electric Instruments, RP-882) and videotaped by a VCR (Panasonic, NV-G40).
The administration of the test substance and the like followed a Y-tube method (Murase et al., Brain Res.; 525, 84–91, 1990).
First, 8-OH-DPAT (10^−7 mol/L) was administered to the isolated nerve cell (dorsal raphe nuclei cell) obtained above, and the level of the inward K^+ current response was measured.
8-OH-DPAT was washed out for 2 min from the above-mentioned cells and the test substance and pindolol (reference substance which is an antagonist) were administered for 1 min, and the level of the inward K^+ current response by each of them was measured. From immediately after administration of the test substance or the reference substance, a mixture of 8-OH-DPAT ([…]) and the test substance or reference substance was administered, and the level of the induced inward K^+ current response was measured. The measurement results and the level of the current response in the same cell by 8-OH-DPAT alone were compared, based on which the antagonistic action on the 8-OH-DPAT induction current was considered. Every current response was expressed upon standardizing according to the following calculation equation based on the level of the 8-OH-DPAT (10^−7 mol/L) induction current in the same cell.
The inward K^+ current response inducing action (5-HT1A agonistic action) by the test substance alone was determined from the following equation. inward K^+ current response inducing action (%) by test substance alone=(ITD÷IDPAT)×100 • ITD: level of inward K^+ current response by test substance alone • IDPAT: level of 8-OH-DPAT (10^−7 mol/L) induced inward K^+ current in the same cell
The suppressive effect (5-HT1A antagonistic action) on the 8-OH-DPAT induced inward K^+ current by the test substance was determined according to the following equation. antagonistic action of test substance on 8-OH-DPAT induced inward K^+ current (% of control)=(IMIX÷IDPAT)×100
IMIX: level of 8-OH-DPAT (10^−7 mol/L) induced inward K^+ current in the presence of test substance

5-HT transporter = molecular target: T2, 5-HT transporter (Rattus norvegicus, UniProt P31652); experiment: 5-HT transporter binding test
T2 construct: Rat brain cortex was homogenized using Polytron; from tissue; host or cells: rat brain cortex membranes
Experimental: Rat brain cortex was homogenized using Polytron in ice-cooled 50 mmol/L Tris-HCl buffer (pH 7.4). After centrifugation at 1000×g and 4° C. for 10 min, the supernatant was transferred to a different centrifugation tube. This was centrifuged at 40000×g and 4° C. for 20 min, and 50 mmol/L Tris-HCl buffer (pH 7.4) was added to the sediment to give a suspension. This was incubated at 37° C. for 10 min, centrifuged at 40000×g and 4° C. for 20 min, and suspended in 50 mmol/L Tris-HCl buffer (pH 7.4) (diluted 100-fold of brain wet weight) containing 120 mmol/L NaCl and 5 mmol/L KCl, which was used as a membrane solution. For binding inhibition test, it was reacted with (^3H) paroxetine prepared to the final concentration of 0.2 nmol/L in a plastic test tube at 25° C. for 90 min. For total binding, a solvent was used and for nonspecific binding, fluvoxamine having a final concentration of 10 μmol/L was used.
Using a cell harvester, the reaction mixture was filtered through a GF/B glass filter treated with 0.1% polyethyleneimine to stop the reaction and washed 3 times with 3 mL of ice-cooled 50 mmol/L Tris-HCl buffer (pH 7.4). The radioactivity was measured using a β plate.

5-HT1A receptor [2] = molecular target: T1, 5-HT1A receptor; experiment: 5-HT1A receptor binding test
Experimental: The experiment was conducted according to the method of M. D. Hall et al (J. Neurochem. 44, 1685–1696 (1985)).
Cryopreserved rat hippocampus was homogenized in a 20-fold wet weight amount of 50 mM Tris-HCl buffer (pH 7.4), and the homogenate was centrifuged at 500×g for 10 min. The supernatant was centrifuged at 40000×g for 10 min and the sediment was incubated at 37° C. for 10 min, which was followed by centrifugation at 40000×g for 10 min. To the sediment was added a 20-fold amount of 50 mM Tris-HCl buffer (pH 7.4) and the mixture was homogenized, which was followed by centrifugation again at 40000×g for 10 min. 50 mM Tris-HCl buffer (pH 7.4, 100-fold volume) containing 1 mM MnCl2 was added to the sediment and the mixture was homogenized, which was used as a membrane solution. To a 96 well plate were successively added a test solution ([…]), (^3H)-8-OH-DPAT ((±)-8-hydroxy-2-(DL-N-propylamino)tetraline, Sigma, lot No. 57H4131) solution (final concentration 2 nM, […]) and the membrane solution (0.45 ml) preincubated at 37° C., and incubated at 37° C. for 12 min. After completion, the reaction mixture was filtered through a GF/B glass filter and the filter was washed 5 times with 50 mM Tris-HCl buffer (pH 7.4). The radioactivity left on the filter was measured with a Top Count. For total binding measurement, 0.005N hydrochloric acid ([…]) was used, and for the measurement of nonspecific binding, a test solution containing WAY-100635 (final concentration […]) instead of the test substance was used. The total binding and nonspecific binding were measured in quadruplicate, and the test substance was measured in duplicate.
The IC50 value was calculated by two-point interpolation and Ki value was calculated according to the following equation using Kd value obtained from each measurement. Ki=IC50/(1+C/Kd)
IC50: concentration of 50% binding inhibition
C: concentration of ligand

[3] = rat brain cortex membrane, (3H) paroxetine 0.2 nmol/L, read-out: 5-HT transporter binding Ki value
[4] = rat hippocampus membrane, (3H)-8-OH-DPAT 2 nM, read-out: 5-HT1A receptor binding Ki value

T2 sequence (P31652 whole entry): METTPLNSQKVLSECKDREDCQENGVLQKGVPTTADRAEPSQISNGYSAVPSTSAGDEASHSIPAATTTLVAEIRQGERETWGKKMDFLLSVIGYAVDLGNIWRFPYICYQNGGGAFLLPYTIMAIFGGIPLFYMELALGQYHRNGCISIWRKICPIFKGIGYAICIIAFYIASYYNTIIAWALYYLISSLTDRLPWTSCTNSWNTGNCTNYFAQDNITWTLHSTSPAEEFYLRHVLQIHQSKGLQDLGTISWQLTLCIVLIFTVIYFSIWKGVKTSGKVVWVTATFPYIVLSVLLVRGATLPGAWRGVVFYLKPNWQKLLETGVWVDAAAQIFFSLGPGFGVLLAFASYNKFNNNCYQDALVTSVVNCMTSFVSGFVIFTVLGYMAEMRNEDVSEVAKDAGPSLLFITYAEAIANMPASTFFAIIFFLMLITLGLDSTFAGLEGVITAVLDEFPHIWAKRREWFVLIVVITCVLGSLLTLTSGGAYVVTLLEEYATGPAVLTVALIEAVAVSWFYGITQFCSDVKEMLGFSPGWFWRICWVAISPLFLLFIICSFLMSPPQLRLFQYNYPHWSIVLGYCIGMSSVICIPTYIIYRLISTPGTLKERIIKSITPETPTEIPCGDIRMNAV

`COc1ccc(C2CCN(C[C@H](O)COc3cccc4oc(-c5nnc(C)o5)cc34)CC2)cc1Cl.Cl` showed a melting point of 218 to 220 °C.

`Cc1nnc(-c2cc3c(OC[C@@H](O)CN4CCC(c5ccc(Cl)c(C)c5)CC4)cccc3o2)o1.Cl` showed a melting point of 184 to 186 °C.

With `Cc1nnc(-c2cc3c(OC[C@@H](O)CN4CCC(c5ccc(Cl)c(F)c5)CC4)cccc3o2)o1.Cl` the melting point was 139 to 141 °C.

For `Cc1nnc(-c2cc3c(OC[C@@H](O)CN4CC=C(c5ccc6ccoc6c5)CC4)cccc3o2)o1.Cl`, the melting point was 135 to 138 °C.

Compound `C=C(C)c1nnc(-c2cc3c(OC[C@@H](O)CN4CCC(c5ccc6c(c5)OCO6)CC4)cccc3o2)o1.Cl` has a melting point of 128 to 130 °C.

`Cc1nnc(-c2cc3c(OC[C@@H](O)CN4CCC(c5ccc(C)c(Cl)c5)CC4)cccc3o2)o1` (as salt: hydrochloride) gave a melting point of 188 to 190 °C.

`Cc1nnc(-c2cc3c(OC[C@@H](O)CN4CCC(c5ccc6c(c5)CCCS6)CC4)cccc3o2)o1` (as salt: hydrochloride) showed a melting point of 223 to 225 °C.

`Cc1nnc(-c2cc3c(OC[C@@H](O)CN4CCC(c5ccc(Cl)c(C(F)(F)F)c5)CC4)cccc3o2)o1` (as salt: hydrochloride) [Example 234, (S)-1-(4-(4-chloro-3-trifluoromethylphenyl)piperidino)-3-(2-(5-methyl-1,3,4-oxadiazol-2-yl)benzo(b)furan-4-yloxy)-2-propanol hydrochloride] gave a melting point of 222 to 224 °C.

In the case of `CON(C)C(=O)c1cc2c(OC[C@@H](O)CN3CCC(c4ccc5ccccc5c4)CC3)cccc2o1` [Example 6, (S)-4-(2-hydroxy-3-(4-(naphthalen-2-yl)piperidino)propyloxy)-N-methoxy-N-methylbenzo(b)furan-2-carboxamide], the “antagonistic action (% of control) of the test substance on the 8-OH-DPAT induced inward K+ current” value (5-HT1A receptor [1]) was “almost nil”, the “agonist/antagonist character at 5-HT1A receptor” value (shortened to “agonist/antagonist character”) (5-HT1A receptor [1]) was “silent antagonists” and the “inward K+ current inducing action (%) by the test substance alone” value (“inward K+ current inducing action (%)” below) (5-HT1A receptor [1]) was “almost nil”. It also gave a pKi (5-HT transporter; [3]) of 8.96 and a pKi (5-HT1A receptor [2]; [4]) of 8.64.

For `Cc1nnc(-c2cc3c(OC[C@@H](O)CN4CCC(c5ccc(Cl)c(Cl)c5)CC4)cccc3o2)o1` [Example 88, (S)-1-(4-(3,4-dichlorophenyl)piperidino)-3-(2-(5-methyl-1,3,4-oxadiazol-2-yl)benzo(b)furan-4-yloxy)-2-propanol hydrochloride 1/4 hydrate], the “antagonistic action (% of control) of the test substance on the 8-OH-DPAT induced inward K+ current” value (5-HT1A receptor [1]) was “almost nil”, the “agonist/antagonist character” value (5-HT1A receptor [1]) was “silent antagonists” and the “inward K+ current inducing action (%)” value (5-HT1A receptor [1]) was “almost nil”. For the same compound, the pKi (5-HT transporter; [3]) was 9.49 and the pKi (5-HT1A receptor [2]; [4]) was 9.12.

In the case of `OCc1nnc(-c2cc3c(OC[C@@H](O)CN4CCC(c5ccc(Cl)c(Cl)c5)CC4)cccc3o2)o1` [Example 136, (S)-3-(4-(3,4-dichlorophenyl)piperidino)-1-(2-(5-hydroxymethyl-1,3,4-oxadiazol-2-yl)benzo(b)furan-4-yloxy)-2-propanol], the “antagonistic action (% of control) of the test substance on the 8-OH-DPAT induced inward K+ current” value (5-HT1A receptor [1]) was “almost nil”, the “agonist/antagonist character” value (5-HT1A receptor [1]) was “silent antagonists” and the “inward K+ current inducing action (%)” value (5-HT1A receptor [1]) was “almost nil”. The pKi (5-HT transporter; [3]) was 9.74 and the pKi (5-HT1A receptor [2]; [4]) was 9.43.

In the case of `CC(C)c1nnc(-c2cc3c(OC[C@@H](O)CN4CCC(c5ccc6c(c5)OCO6)CC4)cccc3o2)o1` [Example 138, (S)-1-(2-(5-(1-methylethyl)-1,3,4-oxadiazol-2-yl)benzo(b)furan-4-yloxy)-3-(4-(3,4-methylenedioxyphenyl)piperidino)-2-propanol hydrochloride], the “antagonistic action (% of control) of the test substance on the 8-OH-DPAT induced inward K+ current” value (5-HT1A receptor [1]) was “almost nil”, the “agonist/antagonist character” value (5-HT1A receptor [1]) was “silent antagonists” and the “inward K+ current inducing action (%)” value (5-HT1A receptor [1]) was “almost nil”. It also gave a pKi (5-HT transporter; [3]) of 8.80 and a pKi (5-HT1A receptor [2]; [4]) of 9.17.

Work on `Cc1nnc(-c2cc3c(OC[C@@H](O)CN4CC=C(c5ccc6occc6c5)CC4)cccc3o2)o1` [Example 238, (S)-1-(4-(benzo(b)furan-5-yl)-5,6-dihydro-2H-pyridin-1-yl)-3-(2-(5-methyl-1,3,4-oxadiazol-2-yl)benzo(b)furan-4-yloxy)-2-propanol] yielded a melting point of 168 to 170 °C.

In the case of `O[C@H](COc1cccc2[nH]ccc12)CN1CCC(O)(c2ccc3ccccc3c2)CC1` [compound for reference, (S)-1-(4-indolyloxy)-3-[4-hydroxy-4-(2-naphthyl)piperidino]propan-2-ol, reference compound], the “agonist/antagonist character” value (5-HT1A receptor [1]) was “partial agonist”, the pKi (5-HT transporter) was 7.26 and the pKi (5-HT1A receptor [2]) was 9.80.
